Measured values as given in US5968940A, “Retinoids and methods of use of same” (priority 1996, dated 1999).

Columns and labels:
fetus absorption in mice = test: Effect on fetus absorption in mice; format: in vivo
Experimental: (§1) Female mice were examined by vaginal smear the morning after being caged with male mice, and if sperm or a vaginal plug was discovered, then the mice were determined to be pregnant. The retinoids were administered at the dosage indicated starting on the seventh day of pregnancy and continued once a day for the next ten days. On the 20th day after the female mice were determined to be pregnant, they were sacrificed by cervical dislocation. Both sides of the uterus were checked and the number of living embryos, dead embryos, and absorbed embryos were counted. The living embryos were further examined for bone abnormalities.

[1] = system: human acute myeloid leukemia (AML), neuroblastoma, teratocarcinoma, melanoma, and rat rhabdomyosarcoma cells; conditions: Smith et al. 1992; cited from earlier work
[2] = system: bone abnormalities in mouse fetus; test: Bone abnormalities in mouse fetus; format: in vivo; conditions: 101 mg/kg (so in the source)
Experimental: as §1
After the embryos became transparent, they were dissected and their skeletons were checked by observation under a microscope.

[3] = 10 mg/kg once a day from day 7 of pregnancy

CC1=C(/C=C/C(C)=C/C=C/C(C)=C/C(=O)O)C(C)(C)CCC1 [All Trans RA, all-trans-retinoic acid, reference compound]
Fetus Absorption (%) (fetus absorption in mice; [3]): 73.7%
Fetus Absorption, absorbed number/implanted number (fetus absorption in mice; [3]): 73/99
Absorbed Number (fetus absorption in mice; 15 mg/kg, implanted number 186, 15 pregnant mice): 111
induction of cell differentiation [1]: induces cell differentiation
Delayed Calcification, Occipital delay/fetus number [2]: 6/16
Delayed Calcification, Sternum delay/fetus number [2]: 16/16
